Key:
Assay in all cases: Radiolabeled ATP kinase assay, panel of 371 kinases (Table S6)
Format in all cases: biochemical
[1] = molecular target: T1, panel of 371 human kinases (Homo sapiens, UniProt Q96RG2); conditions: PASK; 0.1 μM; 10 μM ATP; read-out: % Enzyme Activity (relative to DMSO controls)
T1 construct: purchased Reaction Biology Corp
Source text: (§1) ; FIG. 38C). […]. Further targeted analyses, such as genetic knock-down or knock-out, may be warranted to parse the role of these additional kinases in our model of neurodegeneration.

[2] = molecular target: T2, panel of 371 human kinases (Homo sapiens, UniProt P36888); conditions: FLT3; 0.1 μM; 10 μM ATP; read-out: % Enzyme Activity (relative to DMSO controls)
T2 construct: purchased Reaction Biology Corp
Source text: as §1

[3] = molecular target: T3, panel of 371 human kinases (Homo sapiens, UniProt Q13976); conditions: PKG1a; 0.1 μM; 10 μM ATP; read-out: % Enzyme Activity (relative to DMSO controls)
T3 construct: purchased Reaction Biology Corp
Source text: as §1

[4] = molecular target: T4, panel of 371 human kinases (Homo sapiens, UniProt Q6XUX3); conditions: RIPK5; 0.1 μM; 10 μM ATP; read-out: % Enzyme Activity (relative to DMSO controls)
T4 construct: purchased Reaction Biology Corp
Source text: as §1

[5] = molecular target: T5, panel of 371 human kinases (Homo sapiens, UniProt P17612); conditions: PKA; 0.1 μM; 10 μM ATP; read-out: % Enzyme Activity (relative to DMSO controls)
T5 construct: purchased Reaction Biology Corp
Source text: as §1

[6] = molecular target: T6, panel of 371 human kinases (Homo sapiens, UniProt Q99683); conditions: ASK1/MAP3K5; 0.1 μM; 10 μM ATP; read-out: % Enzyme Activity (relative to DMSO controls)
T6 construct: purchased Reaction Biology Corp
Source text: as §1

[7] = molecular target: T7, panel of 371 human kinases (Homo sapiens, UniProt Q9NQU5); conditions: PAK6; 0.1 μM; 10 μM ATP; read-out: % Enzyme Activity (relative to DMSO controls)
T7 construct: purchased Reaction Biology Corp
Source text: as §1

[8] = molecular target: T8, panel of 371 human kinases (Homo sapiens, UniProt Q9UF33); conditions: EPHA6; 0.1 μM; 10 μM ATP; read-out: % Enzyme Activity (relative to DMSO controls)
T8 construct: purchased Reaction Biology Corp
Source text: as §1

[9] = molecular target: T9, panel of 371 human kinases (Homo sapiens, UniProt P17252); conditions: PKCa; 0.1 μM; 10 μM ATP; read-out: % Enzyme Activity (relative to DMSO controls)
T9 construct: purchased Reaction Biology Corp
Source text: as §1

[10] = molecular target: T10, panel of 371 human kinases (Homo sapiens, UniProt O43781); conditions: DYRK3; 0.1 μM; 10 μM ATP; read-out: % Enzyme Activity (relative to DMSO controls)
T10 construct: purchased Reaction Biology Corp
Source text: as §1

[11] = molecular target: T11, panel of 371 human kinases (Homo sapiens, UniProt Q8IU85); conditions: CAMK1d; 0.1 μM; 10 μM ATP; read-out: % Enzyme Activity (relative to DMSO controls)
T11 construct: purchased Reaction Biology Corp
Source text: as §1

[12] = molecular target: T12, panel of 371 human kinases (Homo sapiens, UniProt Q9Y5S2); conditions: MRCKb/CDC42BPB; 0.1 μM; 10 μM ATP; read-out: % Enzyme Activity (relative to DMSO controls)
T12 construct: purchased Reaction Biology Corp
Source text: as §1

[13] = molecular target: T13, panel of 371 human kinases (Homo sapiens, UniProt P22455); conditions: FGFR4; 0.1 μM; 10 μM ATP; read-out: % Enzyme Activity (relative to DMSO controls)
T13 construct: purchased Reaction Biology Corp
T13 sequence (P22455 22-802): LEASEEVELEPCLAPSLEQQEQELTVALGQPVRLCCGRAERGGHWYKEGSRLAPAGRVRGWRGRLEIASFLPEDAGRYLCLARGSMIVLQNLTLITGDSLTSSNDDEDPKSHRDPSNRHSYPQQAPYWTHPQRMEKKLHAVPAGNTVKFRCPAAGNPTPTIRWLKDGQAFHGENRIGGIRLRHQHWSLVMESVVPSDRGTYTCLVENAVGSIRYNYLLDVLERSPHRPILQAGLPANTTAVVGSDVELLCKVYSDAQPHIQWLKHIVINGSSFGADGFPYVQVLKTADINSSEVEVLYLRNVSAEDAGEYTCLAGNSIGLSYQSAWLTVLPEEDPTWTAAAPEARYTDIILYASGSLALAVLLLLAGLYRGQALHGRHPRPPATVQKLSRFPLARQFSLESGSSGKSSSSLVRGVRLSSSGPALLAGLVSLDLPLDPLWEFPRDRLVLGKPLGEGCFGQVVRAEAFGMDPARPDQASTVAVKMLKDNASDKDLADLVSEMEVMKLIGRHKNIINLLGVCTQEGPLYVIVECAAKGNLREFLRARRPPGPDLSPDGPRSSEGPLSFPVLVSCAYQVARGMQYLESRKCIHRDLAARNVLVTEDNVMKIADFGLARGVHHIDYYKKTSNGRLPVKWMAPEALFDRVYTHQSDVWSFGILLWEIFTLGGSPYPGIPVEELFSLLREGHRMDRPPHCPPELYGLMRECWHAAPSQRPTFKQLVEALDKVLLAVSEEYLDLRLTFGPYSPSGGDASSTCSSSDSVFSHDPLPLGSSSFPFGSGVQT
Source text: as §1

[14] = molecular target: T14, panel of 371 human kinases (Homo sapiens, UniProt P45985); conditions: MKK4; 0.1 μM; 10 μM ATP; read-out: % Enzyme Activity (relative to DMSO controls)
T14 construct: purchased Reaction Biology Corp
Source text: as §1

[15] = molecular target: T15, panel of 371 human kinases (Homo sapiens, UniProt P08631); conditions: HCK; 0.1 μM; 10 μM ATP; read-out: % Enzyme Activity (relative to DMSO controls)
T15 construct: purchased Reaction Biology Corp
Source text: as §1

[16] = molecular target: T16, panel of 371 human kinases (Homo sapiens, UniProt O75716); conditions: STK16; 0.1 μM; 10 μM ATP; read-out: % Enzyme Activity (relative to DMSO controls)
T16 construct: purchased Reaction Biology Corp
Source text: as §1

[17] = molecular target: T17, panel of 371 human kinases (Homo sapiens, UniProt Q13555); conditions: CAMK2g; 0.1 μM; 10 μM ATP; read-out: % Enzyme Activity (relative to DMSO controls)
T17 construct: purchased Reaction Biology Corp
Source text: as §1

[18] = molecular target: T18, panel of 371 human kinases (Homo sapiens, UniProt P28482); conditions: ERK2/MAPK1; 0.1 μM; 10 μM ATP; read-out: % Enzyme Activity (relative to DMSO controls)
T18 construct: purchased Reaction Biology Corp
Source text: as §1

[19] = molecular target: T19, panel of 371 human kinases (Homo sapiens, UniProt Q8TDC3); conditions: BRSK1; 0.1 μM; 10 μM ATP; read-out: % Enzyme Activity (relative to DMSO controls)
T19 construct: purchased Reaction Biology Corp
T19 sequence (Q8TDC3 whole entry): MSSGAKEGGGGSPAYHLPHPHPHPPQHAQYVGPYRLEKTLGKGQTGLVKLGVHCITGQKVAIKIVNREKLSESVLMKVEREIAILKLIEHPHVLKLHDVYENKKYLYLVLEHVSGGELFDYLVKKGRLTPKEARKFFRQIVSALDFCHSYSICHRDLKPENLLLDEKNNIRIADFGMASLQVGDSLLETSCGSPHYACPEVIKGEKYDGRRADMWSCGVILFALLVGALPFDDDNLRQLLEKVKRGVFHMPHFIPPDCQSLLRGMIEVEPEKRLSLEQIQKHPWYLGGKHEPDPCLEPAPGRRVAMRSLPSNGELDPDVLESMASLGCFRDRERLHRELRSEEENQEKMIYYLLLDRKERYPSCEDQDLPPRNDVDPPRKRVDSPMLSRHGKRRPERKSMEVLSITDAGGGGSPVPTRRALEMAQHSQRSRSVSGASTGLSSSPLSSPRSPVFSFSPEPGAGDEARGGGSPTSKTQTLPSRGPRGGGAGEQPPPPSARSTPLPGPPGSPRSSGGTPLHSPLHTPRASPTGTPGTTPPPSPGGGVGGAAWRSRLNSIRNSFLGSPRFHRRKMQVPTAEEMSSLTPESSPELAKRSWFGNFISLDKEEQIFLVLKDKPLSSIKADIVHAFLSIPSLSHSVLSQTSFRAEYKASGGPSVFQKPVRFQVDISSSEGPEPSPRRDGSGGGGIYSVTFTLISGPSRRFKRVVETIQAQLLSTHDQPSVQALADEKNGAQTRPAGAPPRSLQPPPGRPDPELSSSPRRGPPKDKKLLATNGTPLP
Source text: as §1

[20] = molecular target: T20, panel of 371 human kinases (Homo sapiens, UniProt Q08881); conditions: ITK; 0.1 μM; 10 μM ATP; read-out: % Enzyme Activity (relative to DMSO controls)
T20 construct: purchased Reaction Biology Corp
T20 sequence (Q08881 whole entry): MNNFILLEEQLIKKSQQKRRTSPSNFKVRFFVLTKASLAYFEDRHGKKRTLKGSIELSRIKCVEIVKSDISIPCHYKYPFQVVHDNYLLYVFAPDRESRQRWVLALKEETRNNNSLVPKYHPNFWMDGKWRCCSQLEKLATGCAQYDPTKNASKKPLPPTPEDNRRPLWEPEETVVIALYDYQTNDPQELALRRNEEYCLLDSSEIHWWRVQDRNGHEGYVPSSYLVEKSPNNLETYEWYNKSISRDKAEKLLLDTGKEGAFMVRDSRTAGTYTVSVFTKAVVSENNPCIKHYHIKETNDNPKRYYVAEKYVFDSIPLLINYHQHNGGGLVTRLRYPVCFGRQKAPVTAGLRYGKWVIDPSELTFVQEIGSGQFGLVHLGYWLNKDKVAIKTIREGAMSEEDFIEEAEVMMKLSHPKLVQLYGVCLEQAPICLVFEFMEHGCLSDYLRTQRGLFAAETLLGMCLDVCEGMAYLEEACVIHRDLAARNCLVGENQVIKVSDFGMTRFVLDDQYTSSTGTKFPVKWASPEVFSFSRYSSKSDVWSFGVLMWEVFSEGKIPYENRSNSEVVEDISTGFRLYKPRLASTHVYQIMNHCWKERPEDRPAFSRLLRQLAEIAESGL
Source text: as §1

[21] = molecular target: T21, panel of 371 human kinases (Homo sapiens, UniProt P36896); conditions: ALK4/ACVR1B; 0.1 μM; 10 μM ATP; read-out: % Enzyme Activity (relative to DMSO controls)
T21 construct: purchased Reaction Biology Corp
Source text: as §1

[22] = molecular target: T22, panel of 371 human kinases (Homo sapiens, UniProt O14965); conditions: Aurora A; 0.1 μM; 10 μM ATP; read-out: % Enzyme Activity (relative to DMSO controls)
T22 construct: purchased Reaction Biology Corp
T22 sequence (O14965 whole entry): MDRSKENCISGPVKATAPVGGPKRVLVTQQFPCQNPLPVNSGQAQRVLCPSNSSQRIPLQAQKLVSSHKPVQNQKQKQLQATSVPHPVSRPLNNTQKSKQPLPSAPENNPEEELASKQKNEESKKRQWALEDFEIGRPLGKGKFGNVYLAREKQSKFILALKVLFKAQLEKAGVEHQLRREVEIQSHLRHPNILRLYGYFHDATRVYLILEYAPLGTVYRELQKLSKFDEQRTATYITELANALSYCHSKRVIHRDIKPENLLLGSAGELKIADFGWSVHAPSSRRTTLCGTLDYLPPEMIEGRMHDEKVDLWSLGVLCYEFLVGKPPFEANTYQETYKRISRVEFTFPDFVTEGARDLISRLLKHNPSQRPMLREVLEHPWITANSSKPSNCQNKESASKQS
Source text: as §1

[23] = molecular target: T23, panel of 371 human kinases (Homo sapiens, UniProt P48729); conditions: CK1a1; 0.1 μM; 10 μM ATP; read-out: % Enzyme Activity (relative to DMSO controls)
T23 construct: purchased Reaction Biology Corp
Source text: as §1

[24] = molecular target: T24, panel of 371 human kinases (Homo sapiens, UniProt Q5S007); conditions: LRRK2; 0.1 μM; 10 μM ATP; read-out: % Enzyme Activity (relative to DMSO controls)
T24 construct: purchased Reaction Biology Corp
T24 sequence (Q5S007 whole entry): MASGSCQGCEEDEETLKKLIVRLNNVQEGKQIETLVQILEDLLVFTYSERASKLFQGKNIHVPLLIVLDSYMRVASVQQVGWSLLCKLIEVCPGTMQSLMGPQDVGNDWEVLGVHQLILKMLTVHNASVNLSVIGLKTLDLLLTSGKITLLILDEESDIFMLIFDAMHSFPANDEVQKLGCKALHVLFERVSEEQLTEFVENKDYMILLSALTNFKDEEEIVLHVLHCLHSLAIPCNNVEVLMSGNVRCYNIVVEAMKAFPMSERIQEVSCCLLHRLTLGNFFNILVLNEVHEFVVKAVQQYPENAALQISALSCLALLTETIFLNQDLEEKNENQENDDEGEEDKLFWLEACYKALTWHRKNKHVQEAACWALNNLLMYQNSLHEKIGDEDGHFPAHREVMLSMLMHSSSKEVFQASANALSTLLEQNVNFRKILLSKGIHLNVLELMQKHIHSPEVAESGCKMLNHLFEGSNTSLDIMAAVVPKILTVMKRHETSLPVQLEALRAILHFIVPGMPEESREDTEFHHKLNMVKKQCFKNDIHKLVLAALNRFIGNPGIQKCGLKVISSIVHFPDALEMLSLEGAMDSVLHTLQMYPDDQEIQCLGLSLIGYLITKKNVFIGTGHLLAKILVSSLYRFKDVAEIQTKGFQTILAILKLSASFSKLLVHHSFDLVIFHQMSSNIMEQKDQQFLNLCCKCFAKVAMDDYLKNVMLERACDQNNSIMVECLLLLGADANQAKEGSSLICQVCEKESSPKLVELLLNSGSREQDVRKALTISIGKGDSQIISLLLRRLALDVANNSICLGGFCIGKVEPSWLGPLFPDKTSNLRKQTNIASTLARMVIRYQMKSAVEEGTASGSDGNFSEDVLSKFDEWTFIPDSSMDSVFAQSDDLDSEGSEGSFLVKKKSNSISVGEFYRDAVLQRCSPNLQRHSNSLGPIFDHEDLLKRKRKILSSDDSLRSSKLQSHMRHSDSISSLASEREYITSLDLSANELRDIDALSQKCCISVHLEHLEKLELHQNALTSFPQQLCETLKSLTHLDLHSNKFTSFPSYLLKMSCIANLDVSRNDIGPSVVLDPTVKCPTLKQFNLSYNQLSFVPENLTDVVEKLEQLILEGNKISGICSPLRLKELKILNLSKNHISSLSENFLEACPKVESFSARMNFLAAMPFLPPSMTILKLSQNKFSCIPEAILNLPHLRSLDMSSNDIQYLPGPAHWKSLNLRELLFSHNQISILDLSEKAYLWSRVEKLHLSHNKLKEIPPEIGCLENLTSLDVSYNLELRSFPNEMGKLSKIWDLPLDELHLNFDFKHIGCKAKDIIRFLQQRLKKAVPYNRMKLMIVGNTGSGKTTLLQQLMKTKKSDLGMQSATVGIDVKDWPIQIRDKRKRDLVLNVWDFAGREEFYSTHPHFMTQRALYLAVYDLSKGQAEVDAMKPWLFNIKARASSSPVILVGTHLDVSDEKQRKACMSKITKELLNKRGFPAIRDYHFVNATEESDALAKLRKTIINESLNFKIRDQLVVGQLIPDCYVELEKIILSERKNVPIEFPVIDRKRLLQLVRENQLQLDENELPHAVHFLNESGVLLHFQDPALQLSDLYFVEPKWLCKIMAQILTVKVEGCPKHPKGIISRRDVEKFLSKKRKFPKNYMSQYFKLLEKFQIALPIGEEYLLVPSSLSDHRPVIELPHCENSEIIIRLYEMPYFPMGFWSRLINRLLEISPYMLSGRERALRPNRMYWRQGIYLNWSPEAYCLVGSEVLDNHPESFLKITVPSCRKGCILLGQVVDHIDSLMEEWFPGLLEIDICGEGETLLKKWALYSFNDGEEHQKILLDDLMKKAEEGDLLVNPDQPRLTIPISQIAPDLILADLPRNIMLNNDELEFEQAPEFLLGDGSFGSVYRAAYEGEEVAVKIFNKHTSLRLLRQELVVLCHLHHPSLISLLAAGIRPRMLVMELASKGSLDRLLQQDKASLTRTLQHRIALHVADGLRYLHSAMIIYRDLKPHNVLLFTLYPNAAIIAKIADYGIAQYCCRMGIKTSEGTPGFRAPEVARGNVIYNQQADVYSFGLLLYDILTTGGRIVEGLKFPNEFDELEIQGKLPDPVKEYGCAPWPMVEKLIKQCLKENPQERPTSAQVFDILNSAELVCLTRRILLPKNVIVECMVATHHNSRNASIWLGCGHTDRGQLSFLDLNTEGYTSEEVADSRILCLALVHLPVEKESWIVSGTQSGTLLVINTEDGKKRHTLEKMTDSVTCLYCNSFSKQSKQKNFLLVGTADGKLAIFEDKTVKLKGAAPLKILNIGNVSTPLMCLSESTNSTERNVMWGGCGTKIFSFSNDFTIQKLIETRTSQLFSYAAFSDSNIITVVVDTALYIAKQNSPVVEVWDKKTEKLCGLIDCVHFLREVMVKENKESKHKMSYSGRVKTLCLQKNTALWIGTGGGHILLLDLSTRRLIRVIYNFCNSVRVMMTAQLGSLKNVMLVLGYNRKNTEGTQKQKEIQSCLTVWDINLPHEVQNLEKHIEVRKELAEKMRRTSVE
Source text: as §1

Structure (SMILES)	remaining activity at 0.1 µM [1] [%]	remaining activity at 0.1 µM [2] [%]	remaining activity at 0.1 µM [3] [%]	remaining activity at 0.1 µM [4] [%]	remaining activity at 0.1 µM [5] [%]	remaining activity at 0.1 µM [6] [%]	remaining activity at 0.1 µM [7] [%]	remaining activity at 0.1 µM [8] [%]	remaining activity at 0.1 µM [9] [%]	remaining activity at 0.1 µM [10] [%]	remaining activity at 0.1 µM [11] [%]	remaining activity at 0.1 µM [12] [%]	remaining activity at 0.1 µM [13] [%]	remaining activity at 0.1 µM [14] [%]	remaining activity at 0.1 µM [15] [%]	remaining activity at 0.1 µM [16] [%]	remaining activity at 0.1 µM [17] [%]	remaining activity at 0.1 µM [18] [%]	remaining activity at 0.1 µM [19] [%]	remaining activity at 0.1 µM [20] [%]	further results
OCCN1CCN(Cc2ccc(-c3cnc4[nH]cc(-c5cccc(Cl)c5)c4c3)cc2)CC1 [Compound 12k, 2-(4-(4-(3-(3-Chlorophenyl)-1H-pyrrolo[2,3-b]pyridin-5-yl)benzyl)piperazin-1-yl)ethan-1-ol]	90.1	29.4	108	73.4	94.5	95.7	96.3	98.2	98.5	89.2	96.8	89	100	110	95.8	109	110	101	83.6	102	remaining activity at 0.1 µM [21]: 95.9%; remaining activity at 0.1 µM [22]: 104%; remaining activity at 0.1 µM [23]: 91.6%; remaining activity at 0.1 µM [24]: 17%
CN1CCN(Cc2ccc(-c3cnc4[nH]cc(-c5ccc6[nH]ccc6c5)c4c3)cc2)CC1 [Compound 1, 3-(1H-Indol-5-yl)-5-(4-((4-methylpiperazin-1-yl)methyl)phenyl)-1H-pyrrolo[2,3-b]pyridine, reference compound]	78	22.3	101	75.6	104	103	94.6	106	91.4	74.9	101	100	97.2	105	110	100	110	104	80.8	101	remaining activity at 0.1 µM [21]: 100%; remaining activity at 0.1 µM [22]: 95.2%; remaining activity at 0.1 µM [23]: 102%; remaining activity at 0.1 µM [24]: 58.8%
